For eleven compounds, mortality results are on record in US10513496B2, “Aminobenzamide derivatives as useful agents for controlling animal parasites” (BAYER INTELLECTUAL PROPERTY GMBH, priority 2007, dated 2019).

Common to all, as to assay type: in vivo
In one assay the test system is Boophilus microplus. Put plainly: Boophilus microplus test (injection). The conditions noted are these: Rhipicephalus microplus; application rate 20 μg/animal; injected into abdomen of adult engorged female ticks; 100% = all eggs infertile. As for the experimental part: Boophilus microplus—Test (Injection)
(§1) Solvent: Dimethyl Sulfoxide
(§2) To produce a suitable preparation of active compound, 10 mg of active compound are dissolved in 0.5 ml solvent, and the concentrate is diluted with water to the desired concentration.
Five adult engorged female ticks (Boophilus microplus) are injected with compound solution into the abdomen. Ticks are transferred into replica plates and incubated in a climate chamber for a period of time. Egg deposition of fertile eggs is monitored.
After the specified period of time, mortality in % is determined. 100% means that all eggs are infertile; 0% means that all eggs are fertile.

The test system of a further assay is Lucilia cuprina larvae. In words: Lucillia cuprina test. Particulars: application rate 100 ppm, larvae on minced horse meat, 100% = all larvae killed. Here is the method: as §1, §2
Approximately 20-30 (Lucilia cuprina larvae) are transferred into a test tube containing 1 cm^3 of minced horse meat and 0.5 ml aqueous dilution of test compound.
After the specified period of time, mortality in % is determined. 100% means that all the larvae have been killed; 0% means that none of the larvae have been killed.

For another assay, the system named is Ctenocephalides felis. Put plainly: Ctenocephalides felis test (CTECFE). Particulars: application rate 100 ppm in cattle blood, adult unfed fleas, 100% = all fleas killed. As for the experimental part: Ctenocephalides felis—Test (CTECFE)
as §1
To produce a suitable preparation of active compound, 10 mg of active compound are dissolved in 0.5 ml solvent, and the concentrate is diluted with cattle blood to the desired concentration.
Approximately 10 to 15 adult unfed (Ctenocepahlides felis) are placed in flea chambers. The blood chamber, sealed with parafilm on the bottom are filled with cattle blood supplied with compound solution and placed on top of the flea chamber, so that the fleas are able to suck the blood. The blood chamber is heated to 37° C. whereas the flea chamber is kept at room temperature.
After the specified period of time, mortality in % is determined. 100% means that all the fleas have been killed; 0% means that none of the fleas have been killed.

For a further assay, the system named is Musca domestica. Put plainly: Musca domestica test. Particulars: application rate 100 ppm, adults, sponge soaked with sugar and compound solution, 100% = all flies killed. As for the experimental part: as §1, §2
Prior to the assay, a piece or kitchen sponge is soaked with a mixture of sugar and compound solution and placed into a container. 10 adults (Musca domestica) are placed into the container and closed with a perforated lid.
After the specified period of time, mortality in % is determined. 100% means that all the flies have been killed; 0% means that none of the flies have been killed.

As usually defined, the mortality is the share of the test organisms that died. Low values mean more survivors, high ones fewer survivors. In the assay with Boophilus microplus, `CCc1cc(SC(F)(F)F)cc(C)c1NC(=O)c1cccc(NC(=O)c2ccccc2F)c1` [Example I-1-186] gave a mortality at 0.02 mg of 80%. For the same compound, the mortality at 100 ppm with Lucilia cuprina larvae and in the assay on Ctenocephalides felis was ≥ 80% each time.

Compound `CCc1cc(SC(F)(F)C(F)(F)F)cc(C)c1NC(=O)c1cccc(NC(=O)c2ccccc2F)c1` [Example I-1-187] had a mortality at 0.02 mg in the assay on Boophilus microplus of 80%. The mortality at 100 ppm in the assay on Lucilia cuprina larvae and with Ctenocephalides felis was ≥ 80% each time.

In the assay on Boophilus microplus, `O=C(Nc1c(I)cc(C(F)(F)F)cc1C(F)(F)F)c1cccc(NC(=O)c2ccccc2F)c1` [Example I-1-203] displayed a mortality at 0.02 mg of 80%. For the same compound, the mortality at 100 ppm in the assay on Ctenocephalides felis was ≥ 80%.

Turning to `O=C(Nc1cccc(C(=O)Nc2c(I)cc(C(F)(F)F)cc2C(F)(F)F)c1)c1ccccc1` [Example I-1-204], the mortality at 0.02 mg in the assay on Boophilus microplus is 80%. Moreover, the mortality at 100 ppm in the assay on Lucilia cuprina larvae and with Ctenocephalides felis was ≥ 80% in each case.

As for `O=C(Nc1cccc(C(=O)Nc2c(Br)cc(Br)cc2Br)c1)c1ccccc1` [Example I-1-205], the mortality at 0.02 mg with Boophilus microplus turned out to be 80%.

With `O=C(Nc1cccc(C(=O)Nc2c(I)cc(C(F)(F)F)cc2C(F)(F)F)c1)c1ccc(Cl)cc1` [Example I-1-206], the mortality at 100 ppm in the assay on Lucilia cuprina larvae and in the assay on Ctenocephalides felis was ≥ 80% each time.

Consider `O=C(Nc1c(I)cc(C(F)(F)F)cc1I)c1cccc(NC(=O)c2ccccc2F)c1` [Example I-1-207], for which, in the assay on Boophilus microplus, the mortality at 0.02 mg came out at 80%. The mortality at 100 ppm with Lucilia cuprina larvae and in the assay on Ctenocephalides felis was ≥ 80% in each case.

Compound `O=C(Nc1c(I)cc(C(F)(F)F)cc1I)c1cccc(NC(=O)c2cccnc2F)c1` [Example I-1-208] registered a mortality at 0.02 mg with Boophilus microplus of 80%. The mortality at 100 ppm in the assay with Lucilia cuprina larvae, in the assay on Ctenocephalides felis and with Musca domestica was ≥ 80% throughout.

Turning to `O=C(Nc1cccc(C(=O)Nc2c(I)cc(C(F)(F)F)cc2C(F)(F)F)c1)c1ccc(Cl)cc1` [Example I-1-211], the mortality at 0.02 mg in the assay on Boophilus microplus amounted to 80%.

In the assay on Boophilus microplus, `O=C(Nc1cccc(C(=O)Nc2c(Br)cc(Br)cc2C(F)(F)F)c1)c1ccc(Cl)cc1` [Example I-1-212] displayed a mortality at 0.02 mg of 80%. For the same compound, the mortality at 100 ppm in the assay with Ctenocephalides felis was ≥ 80%.

In the assay on Boophilus microplus, `O=C(Nc1c(Br)cc(S(F)(F)(F)(F)F)cc1Br)c1cccc(NC(=O)c2ccccc2F)c1` [Example I-1-213] returned a mortality at 0.02 mg of 80%. The mortality at 100 ppm with Lucilia cuprina larvae and with Ctenocephalides felis was ≥ 80% each time.
